Consider 18 compounds from patent EP2960339A1, “Method and kit for the identification of glycosyl transferase substrates” (Technische Universität München, priority 2014, dated 2015).

Several values for one entry are separate records, joined by “and”; a condition that tells them apart may be missing. Equal entries are not always repeated. Where two headings read alike, the source gives them in different places.

Common to all, as to format: biochemical
The target of test [1] is T1, VvGT14a (Vitis vinifera, UniProt F6H0R6). In words: Substrate screening, radiochemical activity assay with UDP-[14C]glucose. To be noted: for relative specific activity: relative to conversion of geraniol (100 %), extractable radioactivity; for conversion of putative substrate (in words): substrate screening, Figure 3. Here is the method: (§1) In the initial screening, each reaction mixture (200 µL in total) contained Tris-HCl buffer (100 mM, pH 8, 10 mM 2-mercaptoethanol), 37 pmol UDP-[^14C]glucose (0.01 µCi, Biotrend, Köln, Germany), substrate (50 µL of a 1 mg/mL stock solution) and purified protein (0.5-0.8 µg/µL). The reaction mixture was incubated at 30 °C for 18.5 hours. The assays were stopped by adding 1 µL 24% trichloroacetic acid and extracted with 500 µL water-saturated 1-butanol. The organic phase was mixed with 2 mL Pro Flow P+ cocktail (Meridian Biotechnologies Ltd., Epsom, UK) and radioactivity was determined by liquid scintillation counting (LSC, Tri-Carb 2800TR, Perkin Elmer, Waltham MA, USA). Additionally, negative controls without substrate were performed.
T1 sequence (F6H0R6 entry or part of it): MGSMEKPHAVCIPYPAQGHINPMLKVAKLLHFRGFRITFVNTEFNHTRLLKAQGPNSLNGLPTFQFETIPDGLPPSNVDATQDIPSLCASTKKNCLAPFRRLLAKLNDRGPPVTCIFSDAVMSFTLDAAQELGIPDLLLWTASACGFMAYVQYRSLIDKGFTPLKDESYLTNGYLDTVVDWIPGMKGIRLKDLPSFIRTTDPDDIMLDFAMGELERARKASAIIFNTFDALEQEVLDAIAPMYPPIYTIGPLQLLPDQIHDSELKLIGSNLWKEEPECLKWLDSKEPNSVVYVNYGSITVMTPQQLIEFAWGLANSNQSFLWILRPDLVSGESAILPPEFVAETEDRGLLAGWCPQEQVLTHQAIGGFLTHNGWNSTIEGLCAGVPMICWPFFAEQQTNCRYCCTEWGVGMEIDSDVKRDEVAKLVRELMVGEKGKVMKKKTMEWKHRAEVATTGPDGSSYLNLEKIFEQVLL
(§2) After determining the optimal conditions for the best substrate of each gene, the substrate screening was repeated under these conditions.
(§3) The alleles of VvGT14a-c, 15a-c and 16 were isolated from V. vinifera cultivars and cloned in the expression vector pGEX-4T-1. The recombinant proteins were expressed with an N-terminal GST-tag, affinity purified and verified by SDS-PAGE and Western Blot using GST-specific antibody. Enzyme activity studies were performed with UDP-[^14C]glucose and various putative substrates (terpenols, flavonoids and different mono-alcohols) that are known to be glycosidically bound and present in grapes (Gunata et al., 1988).

Test [2] concerns the target T1, VvGT14a. To be noted: for Km: monoterpenols at constant UDP-glucose […], UDP-glucose at fixed geraniol 100 µM, Tris-HCl pH 8.5, 30 °C; for kcat: pH 8.5.
Test [3] concerns the target T2, VvGT15a (Vitis vinifera, UniProt F6GUW0). Here is the method: (§4) The measurements were performed under the following conditions. […] The assay of VvGT15a-c was performed at 30 °C using a Tris-HCl buffer (100 mM, 10 mM 2-mercaptoethanol, pH 7.5) and 10 min (VvGT15c) or 30 min (VvGT15a-b) of incubation for the best substrates. The amount of the purified enzyme and the incubation time were adapted depending on the counting sensibility. The reaction was stopped by adding 1 µL 24% trichloroacetic acid and glucosides were extracted with 100 µL ethyl acetate. Radioactivity was determined by LSC.
(§5) The KM- and vmax-values were calculated from Lineweaver-Burk plots, Hanes-Woolf plots and non-linear fitting of the experimental data.

For test [4], the target named is T3, VvGT15b (Vitis vinifera, UniProt F6GUW0). The settings on record: substrates at fixed UDP-glucose 833 µM; UDP-glucose at constant geraniol 1.25 mM; Tris-HCl pH 7.5, 30 °C. Here is the method: as §4, §5
T3 sequence (F6GUW0 entry or part of it): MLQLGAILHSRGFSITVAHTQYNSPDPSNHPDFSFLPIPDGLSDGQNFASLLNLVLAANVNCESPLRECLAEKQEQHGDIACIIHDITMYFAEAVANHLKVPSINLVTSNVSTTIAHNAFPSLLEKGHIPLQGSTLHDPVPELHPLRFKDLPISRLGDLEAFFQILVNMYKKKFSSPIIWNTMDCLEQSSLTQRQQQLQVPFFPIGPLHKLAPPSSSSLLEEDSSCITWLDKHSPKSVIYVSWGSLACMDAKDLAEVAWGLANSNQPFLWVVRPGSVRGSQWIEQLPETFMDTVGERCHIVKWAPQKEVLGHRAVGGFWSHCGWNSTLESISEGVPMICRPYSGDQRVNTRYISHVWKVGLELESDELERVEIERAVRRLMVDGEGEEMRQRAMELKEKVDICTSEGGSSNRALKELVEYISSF
In test [5] the target is T4, VvGT15c (Vitis vinifera, UniProt F6GUW0). Here is the method:
as §4, §5

The target in test [6] is T5, VvGT16 (Vitis vinifera, UniProt F6HTJ4). As to the kind of experiment: Kinetics (KM, kcat) with UDP-[14C]glucose, liquid scintillation counting. The settings on record: monoterpenes at constant UDP-glucose 512.5 µM; UDP-glucose at fixed geraniol 1.25 mM; Tris-HCl pH 8.5, 30 °C.
T5 sequence (F6HTJ4 entry or part of it): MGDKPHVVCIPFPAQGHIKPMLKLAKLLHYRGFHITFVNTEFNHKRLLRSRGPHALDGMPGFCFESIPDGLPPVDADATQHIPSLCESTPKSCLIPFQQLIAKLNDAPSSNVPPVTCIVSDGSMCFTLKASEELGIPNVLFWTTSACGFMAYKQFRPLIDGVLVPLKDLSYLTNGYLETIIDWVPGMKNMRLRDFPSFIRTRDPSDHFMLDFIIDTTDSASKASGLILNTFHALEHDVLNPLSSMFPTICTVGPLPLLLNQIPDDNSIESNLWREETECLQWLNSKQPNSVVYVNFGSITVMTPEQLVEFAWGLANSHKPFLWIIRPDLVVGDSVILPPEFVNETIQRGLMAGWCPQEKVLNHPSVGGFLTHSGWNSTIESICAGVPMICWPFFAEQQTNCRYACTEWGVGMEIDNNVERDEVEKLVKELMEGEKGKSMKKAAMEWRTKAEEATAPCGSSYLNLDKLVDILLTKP
The target of test [7] is T2, VvGT15a. As to the kind of experiment: Substrate screening, radiochemical activity assay with UDP-[14C]glucose. To be noted: for conversion of putative substrate (in words): substrate screening, Figure 3. The method, then:
as §1, §2, §3

Test [8] deals with T3, VvGT15b. The description is as above. The settings on record: for conversion of putative substrate (in words): substrate screening, Figure 3. The method, then:
as §1, §2, §3

In test [9] the target is T4, VvGT15c. The test is described as above. The settings on record: substrate screening, Figure 3. Here is the method: as §1, §2, §3
The target of test [10] is T5, VvGT16. Described as above. The settings on record: for conversion of putative substrate (in words): substrate screening, Figure 3; for relative specific activity: relative to conversion of benzyl alcohol (100 %), extractable radioactivity; for efficiency of transformation of R- and S-citronellol (in words): radiochemical assays, Figure 12. The method, then:
as §1, §2, §3

For test [11], the target named is T1, VvGT14a. As to the kind of experiment: Activity based profiling using a physiologic aglycone library (radio-TLC, GC-MS). The settings on record: Figure 7. Here is the method: For the preparation of aglycone extracts 50 g (fresh weight) grape skins or 4 g (fresh weight) inflorescences of Gewurztraminer Gm 11-18 were ground to a fine powder in liquid nitrogen. The isolation of glycosides was carried out as described above (see metabolite analysis). The methanolic fraction, which was obtained after SPE, was enzymatically hydrolysed. Therefore, the dried sample was dissolved in citric-acid buffer (0.1 M, pH 4), 50 mg AR 2000 (an enzyme preparation with glucosidase activity prepared from Aspergillus niger; DSM Food Specialties Beverage Ingredients, Delft, Netherlands) was added and incubated for 24 h with exclusion of light. The liberated aglycones were extracted by 20 mL methyl-tert-butyl ether and the organic phase was reduced to 1000µL using a gentle stream of nitrogen.
Aliquots of this aglycone extract were incubated with UDP-glucose and various VvGT-enzymes. Optimum conditions at 30 °C for 24 hours were applied. Each solution contained 100 µL purified enzyme, 100-150 µL Tris-HCl buffer (100 mM, pH7.5 or 8.5, 10 mM 2-mercaptoethanol), 37 pmol UDP-[^14C]glucose (0.01 µCi) and 50-100 µL extract (dissolved in methyl-tert-butylether). The buffer was mixed with the extract and the organic solvent was gently vaporized with nitrogen. The missing volume was adjusted with buffer before the enzyme was added. The reaction was stopped by adding 1 µL 24% trichloroacetic acid and extracted with 500 µL ethyl acetate. After termination of the reaction free aglycones, which were not converted by VvGT14 and VvGT15, were measured via SPME-(Solid Phase Microextraction)-GC-MS. These residual, free aglycones were completely removed by extraction with dichloromethane. Enzymatically formed glucosides were extracted by ethyl acetate, which was removed under nitrogen. The residue was dissolved in methanol and analyzed by LC-MS to detect the generated monoterpenol glucosides. Enzymatic hydrolysis of the glucosides was performed using AR 2000 and 2 mL citric-acid-buffer. After hydrolysis, a 100 µL aliquot was used to detect volatile aglycones via SPME-GC-MS. The remaining solution was extracted with methyl-tert-butyl ether and reduced under nitrogen to approximately 200 µL. One µL were measured by GC-MS via liquid injection.
Assays containing UDP-[^14C]glucose and aglycone libraries or substrates were performed as described above and subsequently extracted with 500 µL ethyl acetate. The organic solvent was vaporized and the pellet was re-suspended in 10 µL methanol and was applied on Silica Gel 60 F254 plates (Merck, Darmstadt, Germany). The dried plates were developed in a solvent system chloroform:acetic acid:water (50/45/5, v:v:v). Plates were dried and analyzed by digital autoradiograph (digital autoradiograph, EG&G Berthold, Wildbad, Germany).
An aglycone library of the two tissues was obtained by enzymatic hydrolysis of the glycosides followed by liquid-liquid extraction of the released alcohols and acids. […] The formed glycosides were separated by thin layer chromatography (TLC) and visualized by radiodetection whereas identification could be achieved by LC-MS and NMR analysis and, after hydrolysis, by GC-MS and LC-MS (Figure 6).

The mark [12] stands for this setting: substrates at fixed UDP-glucose 833 µM, UDP-glucose at constant geraniol 1.25 mM, Tris-HCl pH 7.5, 30 °C.
Where [13] appears, read: citronellol enantiomers, Figure 12, highest level of extractable radioactivity = 100 %.

T4 sequence (F6GUW0 entry or part of it): as the sequence (F6GUW0 entry or part of it) above
T2 sequence (F6GUW0 entry or part of it): as above

`O=c1c(O)c(-c2ccc(O)cc2)oc2cc(O)cc(O)c12` [kaempferol]: the relative specific activity on VvGT14a [1] was < 1%.

Regarding `C=CCc1ccc(O)c(OC)c1` [eugenol], the “conversion of putative substrate (in words)” value (“conversion” for short) at VvGT14a [1] was “catalytic activity”.

By Km is commonly meant the concentration of substrate that gives half-maximal velocity. One may read the kcat as the maximal rate divided by the concentration of active sites. Turning to `CC(C)=CCC/C(C)=C\CO` [Nerol, (Z)-3,7-dimethyl-2,6-octadien-1-ol], the Km on VvGT14a [2] is 10 ± 0.7 µM; on VvGT15a [3] (setting [12]), 48 ± 1.7 µM; at VvGT15b [4] it was 40 ± 3.7 µM; at VvGT15c [5] (setting [12]), 28 ± 0.9 µM; on VvGT16 [6], 118 ± 4.7 µM. For the same compound, the kcat was 0.02 s⁻¹ on VvGT14a [2]; 0.04 s⁻¹ on VvGT15a [3] (pH 7.5); 0.03 s⁻¹ at VvGT15b [4]; 0.06 s⁻¹ on VvGT15c [5] (pH 7.5); 0.009 s⁻¹ on VvGT16 [6]. In addition, the relative specific activity on VvGT14a [1] is reported as > 80%. The “conversion” value is recorded as “glucosylated primarily” on VvGT15a [7], “glucosylated primarily” on VvGT15b [8], “glucosylated primarily” on VvGT15c [9] and “transformed” at VvGT16 [10]. For the same compound, the “aglycone liberated by enzymatic hydrolysis of the glucosides formed from the grape skin aglycone library (in words)” value on VvGT14a [11] is given as “remarkable quantities”.

Turning to `Oc1ccc(-c2[o+]c3cc(O)cc(O)c3cc2O)cc1` [pelargonodin], on VvGT14a [1], the relative specific activity is reported as < 1%.

In the case of `CC(C)=CCCC(C)=CCCC(C)=CCO` [farnesol], the “conversion” value is given as “catalytic activity” at VvGT14a [1] and “low activity” on VvGT15a [7].

In the case of `Oc1cc(O)c2cc(O)c(-c3ccc(O)c(O)c3)[o+]c2c1` [cyanidin], on VvGT14a [1], the relative specific activity was < 1%.

Turning to `OCc1ccccc1` [benzyl alcohol], the “conversion” value on VvGT14a [1] is “catalytic activity”. At VvGT16 [10], the relative specific activity is > 80% and 100%. On VvGT14a [11], the “aglycone liberated by enzymatic hydrolysis of the glucosides formed from the grape skin aglycone library (in words)” value is “remarkable quantities”.

With `CC(C)=CCO` [3-methyl-2-butenol], the figures for the “conversion” value at VvGT14a [1] and at VvGT16 [10] were “catalytic activity” and “transformed”, respectively.

Take `CC(C)=CCC[C@@H](C)CCO` [R-citronellol, (R)-(+)-13-citronellol]: the “efficiency of transformation of R- and S-citronellol (in words)” value at VvGT16 [10] was “same efficiency”.

For `O=c1c(O)c(-c2ccc(O)c(O)c2)oc2cc(O)cc(O)c12` [quercetin], at VvGT14a [1], the relative specific activity is < 1%.

On to `N#CC(O)c1ccccc1` (stereo not drawn) [mandelonitrile], for which the “conversion” value on VvGT14a [1] is “catalytic activity”.

Regarding `CCCCCCCCO` [octanol], the relative specific activity at VvGT14a [1] is recorded as > 80%. For the same compound, the “conversion” value at VvGT15a [7], on VvGT15b [8] and on VvGT15c [9] was “glucosylated primarily” in each case.

`C=CC(C)(O)CCC=C(C)CO` (stereo not drawn) [8-hydroxylinalool]: the Km on VvGT14a [2] is 48 ± 2 µM; at VvGT15a [3] (setting [12]) it was 32 ± 1.4 µM; at VvGT15b [4], 33 ± 1.8 µM; at VvGT15c [5] (setting [12]) it was 17 ± 0.2 µM. Also, the kcat on VvGT14a [2] is 0.002 s⁻¹; on VvGT15a [3] (setting [12]), 0.003 s⁻¹; on VvGT15b [4], 0.003 s⁻¹; on VvGT15c [5] (pH 7.5), 0.004 s⁻¹. For the same compound, the entries for the “conversion” value at VvGT14a [1], on VvGT15a [7] and on VvGT15c [9] were “catalytic activity”, “able to use” and “able to use”, respectively.

Take `CCCCCCO` [hexanol]: the relative specific activity at VvGT14a [1] and at VvGT16 [10] was > 80% throughout. Besides, the “conversion” value on VvGT15a [7], at VvGT15b [8] and at VvGT15c [9] was “glucosylated primarily” in each case.

For `C=C(C)CCO` [3-methyl-3-butenol], the “conversion” value at VvGT14a [1] is listed as “catalytic activity”.

Regarding `CC/C=C\CCO` [cis 3-hexenol], the figures for the “conversion” value on VvGT14a [1] and on VvGT16 [10] were “catalytic activity” and “transformed”, respectively.

Take `CC(C)=CCC[C@H](C)CCO` [S-citronellol]: the kcat at VvGT15a [3] (pH 7.5) worked out at 0.02 s⁻¹; on VvGT15b [4] it was 0.03 s⁻¹; at VvGT15c [5] (setting [12]), 0.03 s⁻¹. Moreover, the Km on VvGT15a [3] (setting [12]) turned out to be 29 ± 3 µM; on VvGT15b [4], 55 ± 1.3 µM; at VvGT15c [5] (setting [12]), 20 ± 1.6 µM. The relative specific activity on VvGT15a [7] (setting [13]) and at VvGT15b [8] (setting [13]) was 100% each time. Also, the “efficiency of transformation of R- and S-citronellol (in words)” value at VvGT16 [10] was “same efficiency”.

Consider `CCC/C=C/CO` [trans 2-hexenol], for which the “conversion” value on VvGT14a [1] is recorded as “catalytic activity”; on VvGT15a [7] it was “able to use”; on VvGT15c [9] it was “able to use”; on VvGT16 [10] it was “transformed”.
